The record followed here is ChEMBL document CHEMBL3880418, “Pyripyropene derivative having ACAT2 inhibiting activity and stable to metabolizing enzymes” (2013).

By half-life is commonly meant how long it takes for the measured level to halve. Lower therefore signals rapid decline.

A short description of series [1]: Half life in Sprague-Dawley rat liver microsomes at 6 ug/ml by HPLC method. Format: ADME. A general note: Microsomes from liver hold many membrane-bound enzymes, among them those of drug oxidation.
The target of series [2] is T1, Sterol O-acyltransferase 2 (Mus musculus) (UniProt O88908).
T1 sequence (whole entry): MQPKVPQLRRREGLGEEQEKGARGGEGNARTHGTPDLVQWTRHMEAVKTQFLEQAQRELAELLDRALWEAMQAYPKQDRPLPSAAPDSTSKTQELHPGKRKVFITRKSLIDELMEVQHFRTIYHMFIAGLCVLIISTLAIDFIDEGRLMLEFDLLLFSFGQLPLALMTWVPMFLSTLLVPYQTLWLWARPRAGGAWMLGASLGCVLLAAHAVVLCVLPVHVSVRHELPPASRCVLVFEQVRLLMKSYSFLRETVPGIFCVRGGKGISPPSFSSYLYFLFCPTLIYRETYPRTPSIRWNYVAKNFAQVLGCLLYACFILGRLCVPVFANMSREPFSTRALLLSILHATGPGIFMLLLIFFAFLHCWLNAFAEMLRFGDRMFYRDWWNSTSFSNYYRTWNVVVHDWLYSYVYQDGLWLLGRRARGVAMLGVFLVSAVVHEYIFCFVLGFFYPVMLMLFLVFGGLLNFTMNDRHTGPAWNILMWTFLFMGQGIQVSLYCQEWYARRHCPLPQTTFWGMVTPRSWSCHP
The series can be described thus: Ratio of compound IC50 to PRD 043 IC50 for ACAT2 in mouse hepatic microsomal membranes. Format: cell membranes. As to conditions: Liver, Microsomal Membrane.

In turn, `Cc1ccc([C@@H]2OC[C@@]3(C)[C@@H]4C[C@H](OC(=O)c5ccc(F)cc5)[C@@]5(C)Oc6cc(-c7cccnc7)oc(=O)c6[C@H](O)[C@@H]5[C@@]4(C)CC[C@@H]3O2)cc1` gave a half-life at 6 ug/ml in series [1] of more than 9 h. Moreover, the Ratio IC50 in series [2] was less than 20.

In series [1], `CC(C)C(=O)OC[C@@]1(C)[C@@H]2C[C@H](OC(=O)C3CCCCC3)[C@@]3(C)Oc4cc(-c5cccnc5)oc(=O)c4[C@H](O)[C@@H]3[C@@]2(C)CC[C@@H]1OC(=O)C(C)C` came in with a half-life at 6 ug/ml of more than 9 h. In series [2], the Ratio IC50 is less than 20. The corresponding values for `COc1ccc(CNC(=O)[C@@]2(C)[C@@H](OC(C)=O)CC[C@]3(C)[C@H]4[C@@H](O)c5c(cc(-c6cccnc6)oc5=O)O[C@]4(C)[C@@H](OC(=O)c4ccc(C#N)cc4)C[C@H]32)c(OC)c1` are more than 9 h and less than 20.

Compound `CCCCCC(=O)OC[C@@]1(C)[C@@H]2C[C@H](OC(=O)c3ccc(C#N)cc3)[C@@]3(C)Oc4cc(-c5cccnc5)oc(=O)c4[C@H](O)[C@@H]3[C@@]2(C)CC[C@@H]1OC(=O)CCCCC` had a half-life at 6 ug/ml in series [1] of more than 9 h. Moreover, in series [2], the Ratio IC50 is less than 20. For the compound `CC(=O)OCC1(C)[C@@H](OC(C)=O)CC[C@]2(C)[C@H]3[C@@H](O)c4c(cc(-c5cccnc5)oc4=O)O[C@]3(C)[C@@H](OC(=O)c3ccc(C)cc3)C[C@@H]12` (single isomer, unassigned), the half-life at 6 ug/ml in series [1] is less than 1 h. Take `CC(=O)O[C@H]1C[C@H]2[C@](C)(COC(=O)C(C)C)[C@@H](OC(=O)C(C)C)CC[C@]2(C)[C@H]2[C@@H](O)c3c(cc(-c4cccnc4)oc3=O)O[C@]12C`: the half-life at 6 ug/ml in series [1] is more than 9 h. Besides, in series [2], the Ratio IC50 was less than 20.

In the case of `C[C@@]12CO[C@@H](c3cccc4ccccc34)O[C@H]1CC[C@@]1(C)[C@H]2C[C@H](OC(=O)c2ccc(C#N)cc2)[C@@]2(C)Oc3cc(-c4cccnc4)oc(=O)c3[C@H](O)[C@H]12`, in series [1], the half-life at 6 ug/ml is more than 9 h. In addition, in series [2], the Ratio IC50 is less than 20.

`CC(=O)O[C@H]1CC[C@]2(C)[C@H]3[C@@H](O)c4c(cc(-c5cccnc5)oc4=O)O[C@]3(C)[C@@H](OC(=O)c3ccc(C#N)cc3)C[C@H]2[C@@]1(C)C(=O)O`: in series [1], the half-life at 6 ug/ml is more than 9 h. The Ratio IC50 in series [2] is less than 20.

Consider `Cc1ccc([C@@H]2OC[C@@]3(C)[C@@H]4C[C@H](OC(=O)c5ccc(F)cc5)[C@@]5(C)Oc6cc(-c7cccnc7)oc(=O)c6[C@H](O)[C@@H]5[C@@]4(C)CC[C@@H]3O2)c(C)c1`, for which the half-life at 6 ug/ml in series [1] was more than 9 h. The Ratio IC50 in series [2] is less than 20. Turning to `CC(=O)O[C@H]1CC[C@@]2(C)[C@@H](C[C@H](OC(=O)c3ccc(C#N)cc3)[C@@]3(C)Oc4cc(-c5cccnc5)oc(=O)c4[C@H](O)[C@H]23)[C@]1(C)COC(=O)C(C)C`, in series [1], the half-life at 6 ug/ml is more than 9 h. The Ratio IC50 in series [2] was less than 20.

On to `Cc1ccc([C@@H]2OC[C@@]3(C)[C@@H]4C[C@H](OC(=O)c5ccc(C#N)cc5)[C@@]5(C)Oc6cc(-c7cccnc7)oc(=O)c6[C@H](O)[C@@H]5[C@@]4(C)CC[C@@H]3O2)cc1`, for which, in series [1], the half-life at 6 ug/ml was more than 9 h. Besides, the Ratio IC50 in series [2] is less than 20. For `C[C@@]12CO[C@@H](c3ccccc3F)O[C@H]1CC[C@@]1(C)[C@H]2C[C@H](OC(=O)c2ccc(C#N)cc2)[C@@]2(C)Oc3cc(-c4cccnc4)oc(=O)c3[C@H](O)[C@H]12`, in that order: more than 9 h and less than 20. For `COc1ccccc1[C@@H]1OC[C@@]2(C)[C@@H]3C[C@H](OC(=O)c4ccc(F)cc4)[C@@]4(C)Oc5cc(-c6cccnc6)oc(=O)c5[C@H](O)[C@@H]4[C@@]3(C)CC[C@@H]2O1`, in that order: more than 9 h and less than 20.

`CC(=O)OCC1(C)[C@@H](OC(C)=O)CC[C@]2(C)[C@H]3[C@@H](O)c4c(cc(-c5cccnc5)oc4=O)O[C@]3(C)[C@@H](OC(=O)c3ccccc3F)C[C@@H]12` (single isomer, unassigned) showed a half-life at 6 ug/ml in series [1] of less than 1 h. `C[C@@]12CO[C@@H](c3ccccc3F)O[C@H]1CC[C@@]1(C)[C@H]2C[C@H](OC(=O)c2ccc(F)cc2)[C@@]2(C)Oc3cc(-c4cccnc4)oc(=O)c3[C@H](O)[C@H]12`: the half-life at 6 ug/ml in series [1] was more than 9 h. The Ratio IC50 in series [2] is less than 20. For `COC(=O)[C@@]1(C)[C@@H](OC(C)=O)CC[C@]2(C)[C@H]3[C@@H](O)c4c(cc(-c5cccnc5)oc4=O)O[C@]3(C)[C@@H](OC(=O)c3ccc(C#N)cc3)C[C@H]21`, in that order: more than 9 h and less than 20. For `Cc1cccc([C@@H]2OC[C@@]3(C)[C@@H]4C[C@H](OC(=O)c5ccc(C#N)cc5)[C@@]5(C)Oc6cc(-c7cccnc7)oc(=O)c6[C@H](O)[C@@H]5[C@@]4(C)CC[C@@H]3O2)c1`, the Ratio IC50 in series [2] is less than 20. `C[C@@]12CO[C@@H](c3ccccc3)O[C@H]1CC[C@@]1(C)[C@H]2C[C@H](OC(=O)c2ccccc2)[C@@]2(C)Oc3cc(-c4cccnc4)oc(=O)c3[C@H](O)[C@H]12` displayed a half-life at 6 ug/ml in series [1] of more than 9 h. Further, the Ratio IC50 in series [2] is less than 20. In series [1], `COc1ccccc1[C@@H]1OC[C@@]2(C)[C@@H]3C[C@H](OC(=O)c4ccc(C#N)cc4)[C@@]4(C)Oc5cc(-c6cccnc6)oc(=O)c5[C@H](O)[C@@H]4[C@@]3(C)CC[C@@H]2O1` gave a half-life at 6 ug/ml of more than 9 h. Further, in series [2], the Ratio IC50 is less than 20. Regarding `Cc1ccccc1[C@@H]1OC[C@@]2(C)[C@@H]3C[C@H](OC(=O)c4ccc(C#N)cc4)[C@@]4(C)Oc5cc(-c6cccnc6)oc(=O)c5[C@H](O)[C@@H]4[C@@]3(C)CC[C@@H]2O1`, in series [1], the half-life at 6 ug/ml is more than 9 h. The Ratio IC50 in series [2] is less than 20. For `COc1cccc(C(=O)O[C@H]2C[C@H]3C(C)(COC(C)=O)[C@@H](OC(C)=O)CC[C@]3(C)[C@H]3[C@@H](O)c4c(cc(-c5cccnc5)oc4=O)O[C@]23C)c1` (single isomer, unassigned), in that order: more than 9 h and less than 5. The corresponding values for `COc1ccc(C(OC)O[C@H]2C[C@H]3[C@]4(C)CO[C@@H](c5ccccc5)O[C@H]4CC[C@]3(C)[C@H]3[C@@H](O)c4c(cc(-c5cccnc5)oc4=O)O[C@]23C)cc1` (stereo not given in full) are more than 9 h and less than 20. In turn, `CCc1ccc(C(=O)O[C@H]2C[C@H]3C(C)(COC(C)=O)[C@@H](OC(C)=O)CC[C@]3(C)[C@H]3[C@@H](O)c4c(cc(-c5cccnc5)oc4=O)O[C@]23C)cc1` (single isomer, unassigned) gave a half-life at 6 ug/ml in series [1] of less than 1 h. In series [1], `CC(=O)OCC1(C)[C@@H](OC(C)=O)CC[C@]2(C)[C@H]3[C@@H](O)c4c(cc(-c5cccnc5)oc4=O)O[C@]3(C)[C@@H](OC(=O)c3ccccc3C)C[C@@H]12` (single isomer, unassigned) gave a half-life at 6 ug/ml of less than 1 h. The same measure, in the same setting: the result for `CC(=O)OCC1(C)[C@@H](OC(C)=O)CC[C@]2(C)[C@H]3[C@@H](O)c4c(cc(-c5cccnc5)oc4=O)O[C@]3(C)[C@@H](OC(=O)C3CCCCC3)C[C@@H]12` (single isomer, unassigned) reads less than 1 h. `CC(=O)OCC1(C)[C@@H](OC(C)=O)CC[C@]2(C)[C@H]3[C@@H](O)c4c(cc(-c5cccnc5)oc4=O)O[C@]3(C)[C@@H](OC(=O)c3cccc(Br)c3)C[C@@H]12` (single isomer, unassigned) registered a half-life at 6 ug/ml in series [1] of less than 1 h.
